Patent US8124601B2, “Compounds for the treatment of Hepatitis C” (Bristol-Myers Squibb Company, priority 2007, dated 2012)

Assays:
HCV NS5B = target: T1, HCV NS5B (Hepatitis C virus genotype 1b, UniProt Q9WMX2); assay: Modified HCV NS5B RdRp enzyme assay (preincubation protocol); type: biochemical
T1 construct: The protein was expressed with an 18 amino acid C-terminal truncation to enhance the solubility; made in house; host or cells: E. coli BL21(DE3)
Protocol: HCV NS5B RdRp cloning, expression, and purification. The cDNA encoding the NS5B protein of HCV, genotype 1b, was cloned into the pET21a expression vector. The protein was expressed with an 18 amino acid C-terminal truncation to enhance the solubility. The E. coli competent cell line BL21(DE3) was used for expression of the protein. Cultures were grown at 37° C. for ˜4 hours until the cultures reached an optical density of 2.0 at 600 nm. The cultures were cooled to 20° C. and induced with 1 mM IPTG. Fresh ampicillin was added to a final concentration of 50 μg/ml and the cells were grown overnight at 20° C.
Cell pellets (3 L) were lysed for purification to yield 15-24 mgs of purified NS5B. The lysis buffer consisted of 20 mM Tris-HCl, pH 7.4, 500 mM NaCl, 0.5% triton X-100, 1 mM DTT, 1 mM EDTA, 20% glycerol, 0.5 mg/ml lysozyme, 10 mM MgCl2, 15 ug/ml deoxyribonuclease I, and Complete TM protease inhibitor tablets (Roche). After addition of the lysis buffer, frozen cell pellets were resuspended using a tissue homogenizer. To reduce the viscosity of the sample, aliquots of the lysate were sonicated on ice using a microtip attached to a Branson sonicator. The sonicated lysate was centrifuged at 100,000×g for 1 hr at 4° C. and filtered through a 0.2 μm filter unit (Corning).
The protein was purified using two sequential chromatography steps: Heparin sepharose CL-6B and polyU sepharose 4B (Pharmacia). The chromatography buffers were identical to the lysis buffer but contained no lysozyme, deoxyribonuclease I, MgCl2 or protease inhibitor and the NaCl concentration of the buffer was adjusted according to the requirements for charging the protein onto the column. Each column was eluted with a NaCl gradient which varied in length from 5-50 column volumes depending on the column type. After the final chromatography step, the resulting purity of the enzyme is >90% based on SDS-PAGE analysis. The enzyme was aliquoted and stored at −80° C.
Standard HCV NS5B RdRp enzyme assay. HCV RdRp genotype 1b assays were run in a final volume of 60 μl in 96 well plates (Corning 3600). The assay buffer is composed of 20 mM Hepes, pH 7.5, 2.5 mM KCl, 2.5 mM MgCl2, 1 mM DTT, 1.6 U RNAse inhibitor (Promega N2515), 0.01 mg/ml BSA (Sigma B6917), and 2% glycerol. All compounds were serially diluted (3-fold) in DMSO and diluted further in water such that the final concentration of DMSO in the assay was 2%. HCV RdRp genotype 1b enzyme was used at a final concentration of 28 nM. A polyA template was used at 6 nM, and a biotinylated oligo-dT12 primer was used at 180 nM final concentration. Template was obtained commercially (Amersham 27-4110). Biotinylated primer was prepared by Sigma Genosys. 3H-UTP was used at 0.6 μCi (0.29 μM total UTP). Reactions were initiated by the addition of enzyme, incubated at 30° C. for 60 min, and stopped by adding 25 μl of 50 mM EDTA containing SPA beads (4 μg/μl, Amersham RPNQ 0007). Plates were read on a Packard Top Count NXT after >1 hr incubation at room temperature.
Modified HCV NS5B RdRp enzyme assay. A modified enzyme assay was performed essentially as described for the standard enzyme assay except for the following: The biotinylated oligo dT12 primer was precaptured on streptavidin-coated SPA beads by mixing primer and beads in assay buffer and incubating at room temperature for one hour. Unbound primer was removed after centrifugation. The primer-bound beads were resuspended in 20 mM Hepes buffer, pH 7.5 and used in the assay at final concentrations of 20 nM primer and 0.67 μg/μl beads. Order of addition in the assay: enzyme (1.75 nM) was added to diluted compound followed by the addition of a mixture of template (0.36 nM), 3H-UTP (0.6 μCi, 0.29 μM), and primer-bound beads, to initiate the reaction; concentrations given are final. Reactions were allowed to proceed for 4 hours at 30° C.
IC50 values for compounds were determined using seven different [I]. […]

HCV replicon cells = assay: HCV replicon FRET assay; type: cell-based; details: Hepatitis C virus
Protocol: FRET Assay Preparation. The HCV FRET screening assay was performed in 96-well cell culture plates. The FRET peptide (Anaspec, Inc.) (Taliani et al., Anal. Biochem. 1996, 240, 60-67) contains a fluorescence donor, EDANS, near one end of the peptide and an acceptor, DABCYL, near the other end. The fluorescence of the peptide is quenched by […] resonance energy transfer (RET) between the donor and the acceptor, but as the NS3 protease cleaves the peptide the products are released from RET quenching and the fluorescence of the donor becomes apparent. The assay reagent was made as follows: 5× cell Luciferase cell culture lysis reagent from Promega (#E153A) diluted to 1× with dH2O, NaCl added to 150 mM final, the FRET peptide diluted to 20 μM final from a 2 mM stock.
To prepare plates, HCV replicon cells, with or without a Renilla luciferase reporter gene, were trypsinized and plated in a 96-well plate with titrated test compounds added in columns 3 through 12; columns 1 and 2 contained a control compound (HCV control inhibitor), and the bottom row contained cells with DMSO only. The plates were then placed in a CO2 incubator at 37° C.
Assays. Subsequent to addition of the test compounds described above (FRET Assay Preparation), at various times the plate was removed and Alamar blue solution (Trek Diagnostics, #00-100) was added to measure cellular toxicity. After reading in a Cytoflour 4000 instrument (PE Biosystems), plates were rinsed with PBS and then used for FRET assay by the addition of 30 ul of the FRET peptide assay reagent described above (FRET Assay Preparation) per well. The plate was then placed into the Cytoflour 4000 instrument which had been set to 340 excite/490 emission, automatic mode for up to 20 cycles and the plate read in a kinetic mode. Typically, the signal to noise using an endpoint analysis after the reads was at least three-fold. Alternatively, after Alamar blue reading, plates were rinsed with PBS, then used for luciferase assay using the Promega Dual-Glo Luciferase Assay System or the Promega EnduRen Live Cell Substrate assay.
Compound analysis was performed by quantification of the relative HCV replicon inhibition and the relative cytotoxicity values. To calculate cytoxicity values, the average Alamar Blue fluorescence signals from the control wells were set as 100% non-toxic. The individual signals in each of the compound test wells were then divided by the average control signal and multiplied by 100% to determine […]. To calculate the HCV replicon inhibition values, an average background value was obtained from the two wells containing the highest amount of HCV control inhibitor at the end of the assay period. These numbers were similar to those obtained from naïve Huh-7 cells. The background numbers were then subtracted from the average signal obtained from the control wells and this number was used as 100% activity. The individual signals in each of the compound test wells were then divided by the averaged control values after background subtraction and multiplied by 100% to determine percent activity. EC50 values were calculated as the concentration which caused a 50% reduction in FRET or luciferase activity. The two numbers generated for the compound plate, percent cytoxicity and percent activity, were used to determine compounds of interest for further analysis.

T1 sequence (Q9WMX2 2420-2992): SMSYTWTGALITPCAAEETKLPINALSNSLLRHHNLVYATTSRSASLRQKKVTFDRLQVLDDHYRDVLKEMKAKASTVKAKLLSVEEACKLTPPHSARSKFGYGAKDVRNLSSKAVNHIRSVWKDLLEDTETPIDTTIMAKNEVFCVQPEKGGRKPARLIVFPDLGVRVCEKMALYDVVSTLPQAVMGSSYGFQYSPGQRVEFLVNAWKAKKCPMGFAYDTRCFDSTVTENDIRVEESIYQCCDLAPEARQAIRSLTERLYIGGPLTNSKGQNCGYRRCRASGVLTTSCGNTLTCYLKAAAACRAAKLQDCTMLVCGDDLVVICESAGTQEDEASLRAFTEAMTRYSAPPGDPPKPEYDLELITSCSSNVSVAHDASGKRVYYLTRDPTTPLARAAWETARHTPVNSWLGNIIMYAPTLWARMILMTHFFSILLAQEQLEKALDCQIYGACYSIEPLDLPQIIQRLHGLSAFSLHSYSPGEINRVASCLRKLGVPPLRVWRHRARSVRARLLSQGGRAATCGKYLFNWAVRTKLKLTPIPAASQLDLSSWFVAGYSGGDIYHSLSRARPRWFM

| Structure (SMILES) | IC50 (HCV NS5B) | EC50 (HCV replicon cells) |
| --- | --- | --- |
| COc1ccc2c(c1)C1CC1(C(=O)N1CCCC13CCN(C)CC3)Cn1c-2c(C2CCCCC2)c2ccc(C(=O)NS(=O)(=O)C(C)C)cc21 (stereo not shown) | 4.58 to 500 nM | 4.58 to 500 nM |
| COc1ccc2c(c1)C=C(C(=O)N1CCCC13CCN(C)CC3)Cn1c-2c(C2CCCCC2)c2ccc(C(=O)NS(=O)(=O)C(C)C)cc21 | 4.58 to 500 nM | 4.58 to 500 nM |
| CCCS(=O)(=O)NC(=O)c1ccc2c(C3CCCCC3)c3n(c2c1)CC1(C(=O)N2CCCC24CCN(C)CC4)CC1c1cc(OC)ccc1-3 (stereo not shown) | 4.58 to 500 nM | 4.58 to 500 nM |
| COc1ccc2c(c1)C1CC1(C(=O)N1CCN(C)C3(CCCCC3)C1)Cn1c-2c(C2CCCCC2)c2ccc(C(=O)NS(=O)(=O)C(C)C)cc21 (stereo not shown) | 4.58 to 500 nM | 4.58 to 500 nM |
| COc1ccc2c(c1)C1CC1(C(=O)N1CCCC3(CCN(C)C3=O)C1)Cn1c-2c(C2CCCCC2)c2ccc(C(=O)NS(=O)(=O)C(C)C)cc21 (stereo not shown) [drawing 21] | 4.58 to 500 nM | 4.58 to 500 nM |
| COc1ccc2c(c1)C1CC1(C(=O)N1CCNC3(CCCCC3)C1)Cn1c-2c(C2CCCCC2)c2ccc(C(=O)NS(=O)(=O)C(C)C)cc21 (stereo not shown) | 4.58 to 500 nM | 4.58 to 500 nM |
| CCCS(=O)(=O)NC(=O)c1ccc2c(C3CCCCC3)c3n(c2c1)CC1(C(=O)N2CCC4(CCCN4C(C)=O)CC2)CC1c1cc(OC)ccc1-3 (stereo not shown) | 4.58 to 500 nM | 4.58 to 500 nM |
| COc1ccc2c(c1)C1CC1(C(=O)N1CCC3(CCN(C(=O)OC(C)(C)C)C3)C1)Cn1c-2c(C2CCCCC2)c2ccc(C(=O)NS(=O)(=O)C(C)C)cc21 (stereo not shown) | 4.58 to 500 nM | 4.58 to 500 nM |
| COc1ccc2c(c1)C1CC1(C(=O)N1CCCC3(CCN(C)C3)C1)Cn1c-2c(C2CCCCC2)c2ccc(C(=O)NS(=O)(=O)C(C)C)cc21 (stereo not shown) [drawing 23] | 4.58 to 500 nM | 4.58 to 500 nM |
| CCCS(=O)(=O)NC(=O)c1ccc2c(C3CCCCC3)c3n(c2c1)CC1(C(=O)N2CCNC4(CCCCC4)C2)CC1c1cc(OC)ccc1-3 (stereo not shown) | 4.58 to 500 nM | 4.58 to 500 nM |
| COc1ccc2c(c1)C1CC1(C(=O)N1CCC3(CCCN3C)CC1)Cn1c-2c(C2CCCCC2)c2ccc(C(=O)NS(=O)(=O)C(C)C)cc21 (stereo not shown) | 4.58 to 500 nM | 4.58 to 500 nM |
| COc1ccc2c(c1)C1CC1(C(=O)N1CCN(C)C3(CCCC3)C1)Cn1c-2c(C2CCCCC2)c2ccc(C(=O)NS(=O)(=O)C(C)C)cc21 (stereo not shown) | 4.58 to 500 nM | 4.58 to 500 nM |
| COc1ccc2c(c1)C1CC1(C(=O)N1CCC3(CCCN3)CC1)Cn1c-2c(C2CCCCC2)c2ccc(C(=O)NS(=O)(=O)C(C)C)cc21 (stereo not shown) | 4.58 to 500 nM | 4.58 to 500 nM |
| CCCS(=O)(=O)NC(=O)c1ccc2c(C3CCCCC3)c3n(c2c1)CC1(C(=O)N2CCNC4(CCCC4)C2)CC1c1cc(OC)ccc1-3 (stereo not shown) | 4.58 to 500 nM | 4.58 to 500 nM |
